One assay has as its system Mus musculus. Put plainly: Analgesic activity in mouse visceral pain model assessed as acetic acid induced writhing at 100 mg/kg, ip. The following applies: route intraperitoneal. In kind it is functional.
The target in assay [1] is 5-hydroxytryptamine receptor 1B (Homo sapiens, UniProt P28222). Put plainly: Displacement of [3H]CYP from 5HT1B receptor. On the technique in general: Loss of bound radioactivity is the signal in a displacement assay; it reports binding, not function.
The target in assay [2] is Voltage-dependent N-type calcium channel subunit alpha-1B (Homo sapiens, UniProt Q00975). Put plainly: Inhibition of Cav2.2 channel.
A further assay concerns Rattus norvegicus. Put plainly: Analgesic activity in ip dosed rat complete Freund's adjuvant-induced mechanical hyperalgesia model assessed as paw withdrawal latency after 2 days. In kind it is functional. The following applies: 48 h.
The next assay has as its target D(2) dopamine receptor (Homo sapiens, UniProt P14416). Nature of the assay: Displacement of [3H]spiperone from dopamine D2 receptor.
Assay [3] concerns the target Sodium channel protein type 10 subunit alpha (Rattus norvegicus, UniProt Q62968). Put plainly: Inhibition of Nav1.8 channel in rat dorsal root ganglion neurons assessed as blockade of TTX-R current at -100 mV by patch clamp method. The class given is tissue-based. A general note: Patch clamp records ionic current or voltage across a cell membrane.
Assay [4] deals with Muscarinic acetylcholine receptor M2 (Homo sapiens, UniProt P08172). Put plainly: Displacement of [3H]AF-DX384 from muscarinic M2 receptor.
Assay [5] deals with Muscarinic acetylcholine receptor M5 (Homo sapiens, UniProt P08912). Put plainly: Displacement of [3H]4DAMP from muscarinic M5 receptor.
The target in another assay is P2X purinoceptor 2 (Homo sapiens, UniProt Q9UBL9). Nature of the assay: Displacement of [3H]alpha,beta-methyl ATP from P2X receptor.

For one compound, Activity, IC50 and ED50 results are on record in ChEMBL document CHEMBL1142222, “A-803467, a potent and selective Nav1.8 sodium channel blocker, attenuates neuropathic and inflammatory pain in the rat” (Proc Natl Acad Sci U S A, 2007).

D(2) dopamine receptor, sequence (P14416 whole entry): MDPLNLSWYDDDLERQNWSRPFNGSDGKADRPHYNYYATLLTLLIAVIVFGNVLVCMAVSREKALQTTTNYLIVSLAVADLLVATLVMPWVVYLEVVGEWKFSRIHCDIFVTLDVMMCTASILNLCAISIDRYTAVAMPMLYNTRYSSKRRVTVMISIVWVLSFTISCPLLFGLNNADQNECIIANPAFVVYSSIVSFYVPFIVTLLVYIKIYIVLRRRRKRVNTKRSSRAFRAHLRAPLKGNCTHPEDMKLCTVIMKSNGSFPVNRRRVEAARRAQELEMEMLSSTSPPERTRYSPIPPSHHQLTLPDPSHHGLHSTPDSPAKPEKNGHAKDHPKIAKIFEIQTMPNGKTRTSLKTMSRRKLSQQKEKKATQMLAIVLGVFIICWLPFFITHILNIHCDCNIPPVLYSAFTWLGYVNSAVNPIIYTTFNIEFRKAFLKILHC
Muscarinic acetylcholine receptor M2, sequence (P08172 whole entry): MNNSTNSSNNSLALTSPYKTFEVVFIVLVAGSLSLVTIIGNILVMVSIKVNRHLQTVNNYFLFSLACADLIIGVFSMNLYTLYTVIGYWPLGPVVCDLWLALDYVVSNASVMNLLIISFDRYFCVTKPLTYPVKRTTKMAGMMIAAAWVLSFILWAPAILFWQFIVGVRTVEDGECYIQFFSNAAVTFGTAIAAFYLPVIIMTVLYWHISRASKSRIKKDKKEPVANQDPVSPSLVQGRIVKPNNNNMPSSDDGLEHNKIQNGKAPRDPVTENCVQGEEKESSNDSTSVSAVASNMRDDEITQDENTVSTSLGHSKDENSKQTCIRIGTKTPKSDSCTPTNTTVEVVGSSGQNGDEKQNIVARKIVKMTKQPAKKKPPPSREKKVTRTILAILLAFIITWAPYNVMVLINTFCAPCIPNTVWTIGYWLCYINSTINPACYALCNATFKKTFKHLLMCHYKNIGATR
Muscarinic acetylcholine receptor M5, sequence (P08912 whole entry): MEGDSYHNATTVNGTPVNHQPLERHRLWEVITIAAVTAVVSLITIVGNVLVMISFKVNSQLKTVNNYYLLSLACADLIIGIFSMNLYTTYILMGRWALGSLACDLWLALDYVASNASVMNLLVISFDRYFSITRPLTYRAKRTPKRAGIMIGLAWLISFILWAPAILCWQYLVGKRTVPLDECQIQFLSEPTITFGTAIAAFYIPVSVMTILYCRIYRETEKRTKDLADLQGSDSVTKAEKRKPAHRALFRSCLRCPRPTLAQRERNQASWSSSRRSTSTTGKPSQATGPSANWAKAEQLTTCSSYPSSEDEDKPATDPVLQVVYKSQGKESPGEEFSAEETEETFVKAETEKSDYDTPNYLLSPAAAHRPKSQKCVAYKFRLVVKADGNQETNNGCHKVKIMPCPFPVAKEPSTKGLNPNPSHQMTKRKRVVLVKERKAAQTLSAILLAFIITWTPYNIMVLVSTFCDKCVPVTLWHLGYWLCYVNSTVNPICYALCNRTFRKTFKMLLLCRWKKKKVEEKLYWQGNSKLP
Sodium channel protein type 10 subunit alpha, sequence (Q62968 whole entry): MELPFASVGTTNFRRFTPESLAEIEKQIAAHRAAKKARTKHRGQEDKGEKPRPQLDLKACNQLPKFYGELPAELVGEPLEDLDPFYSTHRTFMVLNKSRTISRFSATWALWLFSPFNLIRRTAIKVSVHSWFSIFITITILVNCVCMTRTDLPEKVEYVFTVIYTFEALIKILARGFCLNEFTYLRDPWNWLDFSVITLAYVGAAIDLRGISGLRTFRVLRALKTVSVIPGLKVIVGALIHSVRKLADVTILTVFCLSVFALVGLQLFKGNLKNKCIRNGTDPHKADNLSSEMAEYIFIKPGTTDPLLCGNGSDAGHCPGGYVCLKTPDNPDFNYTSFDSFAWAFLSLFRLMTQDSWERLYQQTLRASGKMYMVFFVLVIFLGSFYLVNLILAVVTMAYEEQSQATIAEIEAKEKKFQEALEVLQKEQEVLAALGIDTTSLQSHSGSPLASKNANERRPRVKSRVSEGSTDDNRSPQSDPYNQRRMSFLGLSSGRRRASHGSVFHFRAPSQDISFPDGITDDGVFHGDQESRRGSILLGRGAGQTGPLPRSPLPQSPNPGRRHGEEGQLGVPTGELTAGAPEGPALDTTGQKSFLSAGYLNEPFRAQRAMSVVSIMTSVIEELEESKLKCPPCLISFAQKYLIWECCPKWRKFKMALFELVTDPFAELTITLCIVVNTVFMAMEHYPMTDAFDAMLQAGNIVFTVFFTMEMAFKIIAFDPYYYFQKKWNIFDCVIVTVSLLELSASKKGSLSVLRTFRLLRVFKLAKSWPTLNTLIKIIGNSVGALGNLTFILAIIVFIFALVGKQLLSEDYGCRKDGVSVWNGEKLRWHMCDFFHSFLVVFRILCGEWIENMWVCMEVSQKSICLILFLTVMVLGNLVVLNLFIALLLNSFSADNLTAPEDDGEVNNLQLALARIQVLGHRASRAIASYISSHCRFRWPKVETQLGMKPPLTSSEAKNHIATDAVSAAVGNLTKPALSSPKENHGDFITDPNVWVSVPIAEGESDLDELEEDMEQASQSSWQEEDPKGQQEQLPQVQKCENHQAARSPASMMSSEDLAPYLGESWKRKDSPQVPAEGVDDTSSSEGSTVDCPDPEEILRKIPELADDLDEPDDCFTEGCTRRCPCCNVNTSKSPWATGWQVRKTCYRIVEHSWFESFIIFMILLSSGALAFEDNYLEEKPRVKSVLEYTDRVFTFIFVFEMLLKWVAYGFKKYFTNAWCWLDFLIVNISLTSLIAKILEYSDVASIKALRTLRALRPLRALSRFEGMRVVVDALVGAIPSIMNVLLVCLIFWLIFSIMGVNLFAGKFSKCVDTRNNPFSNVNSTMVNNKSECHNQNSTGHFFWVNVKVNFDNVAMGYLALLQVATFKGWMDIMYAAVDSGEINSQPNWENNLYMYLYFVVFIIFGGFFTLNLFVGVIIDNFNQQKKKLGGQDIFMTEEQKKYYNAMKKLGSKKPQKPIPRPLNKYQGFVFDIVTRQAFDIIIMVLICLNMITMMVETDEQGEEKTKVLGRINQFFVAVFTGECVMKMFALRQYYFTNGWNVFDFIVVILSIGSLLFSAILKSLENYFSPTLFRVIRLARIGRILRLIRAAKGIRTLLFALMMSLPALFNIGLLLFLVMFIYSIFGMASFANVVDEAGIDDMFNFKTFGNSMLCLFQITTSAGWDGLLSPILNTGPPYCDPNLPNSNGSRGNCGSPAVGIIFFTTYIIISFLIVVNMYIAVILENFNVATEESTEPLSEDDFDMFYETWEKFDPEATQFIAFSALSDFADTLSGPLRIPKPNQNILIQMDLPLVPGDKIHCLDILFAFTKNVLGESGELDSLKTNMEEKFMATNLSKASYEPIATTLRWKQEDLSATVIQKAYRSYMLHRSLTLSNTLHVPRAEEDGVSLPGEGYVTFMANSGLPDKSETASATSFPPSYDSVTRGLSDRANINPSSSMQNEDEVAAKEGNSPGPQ
5-hydroxytryptamine receptor 1B, sequence (P28222 whole entry): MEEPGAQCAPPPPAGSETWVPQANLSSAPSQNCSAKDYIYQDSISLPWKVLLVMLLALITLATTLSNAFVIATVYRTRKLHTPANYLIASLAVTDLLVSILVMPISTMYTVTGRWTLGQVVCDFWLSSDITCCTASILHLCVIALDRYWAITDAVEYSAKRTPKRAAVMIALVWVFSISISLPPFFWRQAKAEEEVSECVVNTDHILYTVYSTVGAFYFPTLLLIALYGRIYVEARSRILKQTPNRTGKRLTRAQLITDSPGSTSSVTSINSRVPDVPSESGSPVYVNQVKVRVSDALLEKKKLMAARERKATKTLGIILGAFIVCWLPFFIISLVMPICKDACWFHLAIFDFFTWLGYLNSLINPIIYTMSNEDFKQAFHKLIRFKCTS
P2X purinoceptor 2, sequence (Q9UBL9 whole entry): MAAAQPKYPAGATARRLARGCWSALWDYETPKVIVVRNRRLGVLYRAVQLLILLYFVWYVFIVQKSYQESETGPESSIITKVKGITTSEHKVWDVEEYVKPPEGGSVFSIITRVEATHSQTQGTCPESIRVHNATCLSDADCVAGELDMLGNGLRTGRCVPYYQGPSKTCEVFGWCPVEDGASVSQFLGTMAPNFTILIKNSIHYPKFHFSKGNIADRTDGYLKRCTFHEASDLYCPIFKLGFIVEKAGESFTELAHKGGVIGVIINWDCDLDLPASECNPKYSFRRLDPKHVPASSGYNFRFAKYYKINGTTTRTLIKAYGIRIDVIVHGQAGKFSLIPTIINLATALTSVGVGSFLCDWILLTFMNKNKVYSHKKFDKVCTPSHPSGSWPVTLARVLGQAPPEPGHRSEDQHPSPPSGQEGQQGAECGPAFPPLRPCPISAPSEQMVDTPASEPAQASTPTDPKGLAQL

Turning to `COc1cc(NC(=O)c2ccc(-c3ccc(Cl)cc3)o2)cc(OC)c1`, the Activity in the assay on Mus musculus worked out at 34%. The half-inhibitory concentration (IC50) in assay [1] was > 10 µM; in assay [2], > 10 µM; at D(2) dopamine receptor, > 10 µM; in assay [3], 1 µM; in assay [4] it was > 10 µM; in assay [5], > 10 µM. The IC50 at P2X purinoceptor 2 was > 10 µM. For the same compound, the median effective dose (ED50) in the assay on Rattus norvegicus was > 100 mg/kg.

Usually IC50 stands for the point on the concentration scale where inhibition reaches its midpoint. The ED50 is the dose at which the effect has come halfway, by size or by number of responders.
